Assay results reported in patent publication US6479546B1, “Allosteric inhibitors of lipoxygenase” (The Regents of the University of California, priority 2000, dated 2002).
Counter-ions that a name gives are not always drawn. Like-named read-outs stand apart in the source and are kept apart here.

Legend:
[1] = Surface tension measurements (CMC); type: physicochemical
Experimental: Surface Tension Measurements. Buffers were used which correspond to those of the kinetic measurements. Surface tension was measured as described by Harkins et al., using a thin platinum plate (perimeter 2.5 cm) and a Cahn electro-microbalance. Harkins et al., J. Am. Chem. Soc. (1937) 59:2189-2197. Various amounts of surface active agent were added to a 30 ml buffer solution and the surface tension was continuously recorded. After each addition, a sufficiently long period of time (10-30 min.) was allowed to elapse before attaining a steady value of the surface tension. Critical micelle concentration (CMC) values were obtained by plotting the measured surface tensions versus the logarithm of the concentrations of the surface-active agent and recording the intercept of the two straight lines. The point at which a deviation from the straight line, as observed in the surface tension versus log [surface-active agent] plot, was defined as the start of pre-micellular aggregate formation. Harkins et al., supra; Verhagen et al., Chem. Phys. Lipids (1978) 22:255-259.

[2] = molecular target: T1, SLO-1 (Glycine max, UniProt P08170); assay: Steady state kinetics / inhibition studies, SLO-1; type: biochemical, soybean
T1 construct: made in house
T1 sequence (P08170 1-839): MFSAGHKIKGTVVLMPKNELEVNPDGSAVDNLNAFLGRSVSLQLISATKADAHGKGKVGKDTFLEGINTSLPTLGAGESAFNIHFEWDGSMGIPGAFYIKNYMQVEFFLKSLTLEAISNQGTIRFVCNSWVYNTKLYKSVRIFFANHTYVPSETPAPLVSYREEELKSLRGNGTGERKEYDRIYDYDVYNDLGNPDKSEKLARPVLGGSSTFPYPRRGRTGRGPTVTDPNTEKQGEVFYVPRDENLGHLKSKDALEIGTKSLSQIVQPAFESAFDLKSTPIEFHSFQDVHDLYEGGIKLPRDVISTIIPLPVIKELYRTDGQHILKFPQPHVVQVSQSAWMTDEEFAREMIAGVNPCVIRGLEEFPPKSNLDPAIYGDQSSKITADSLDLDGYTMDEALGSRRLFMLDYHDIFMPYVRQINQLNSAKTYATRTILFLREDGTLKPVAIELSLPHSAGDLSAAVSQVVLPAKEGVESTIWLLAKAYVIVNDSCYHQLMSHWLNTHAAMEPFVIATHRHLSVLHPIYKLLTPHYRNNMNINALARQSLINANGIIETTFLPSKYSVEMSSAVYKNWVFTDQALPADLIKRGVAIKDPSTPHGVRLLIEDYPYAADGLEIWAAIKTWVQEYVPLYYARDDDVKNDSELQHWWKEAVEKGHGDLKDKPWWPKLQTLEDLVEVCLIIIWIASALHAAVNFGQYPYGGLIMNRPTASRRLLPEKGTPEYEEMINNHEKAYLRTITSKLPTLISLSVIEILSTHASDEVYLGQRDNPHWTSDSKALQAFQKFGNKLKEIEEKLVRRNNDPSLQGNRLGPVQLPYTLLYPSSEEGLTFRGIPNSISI
Experimental: Steady State Kinetics. Lipoxygenase rates were determined by following the formation of product at 234 nm (ε=25,000 M^−1cm^−1) with a Hewlett-Packard 8453 UV-vis spectrophotometer. The destruction of 13-HPOD by the diode array spectrophotometer were negligible under these reaction conditions. All reactions were 2 ml in volume, run at room temperature (23° C.) and constantly stirred with a rotating magnetic bar. In experiments using SLO-1, kinetic reactions were performed in 0.1 M borate (pH 9.2), while reactions using 15-HLO were performed in 25 mM HEPES (pH 7.5). Substrate solutions used in each experiment were measured for accurate LA concentration by quantitatively converting substrate to product using soybean lipoxygenase-1. Enzymatic rates were measured between 1-50 μM LA with 1-25 μM OS for SLO-1 and lower than 2 μM LA for 15-HLO. Solutions containing LA and/or OS were sonicated for 3-5 minutes before use in kinetic experiments. Rate reactions were initiated by the addition of enzyme to final concentrations of 3 nM SLO-1 (80% iron content) and 200 nM 15-HLO (15% iron content). All kinetic parameters were determined by non-linear regression using Kaleidagraph software (Abelbeck).

[3] = molecular target: T1, SLO-1; assay: Kinetic isotope effect (KIE) titration, SLO-1; type: biochemical, soybean; conditions: for Kd: SLO-1, 5 μM LA/D-LA, pH 9.2, read-out: KD from hyperbolic fit of KIE
Experimental: Kinetic Isotope Effect Determination. Determination of the kinetic isotope effect (KIE) was similar to that previously published by Holman and coworkers with the following modifications. Lewis et al., J. Am. Chem. Soc. (1994) 116:795-796. Lipoxygenase is added (0.12 nM SLO-1 and 12 nM 15-HLO) to a protio/per-deutero LA mixture (60 mL, 5 μM LA/D-LA), monitored at 234 nm with a P-E Lambda 4 and stopped with an acid quench (5% glacial acetic acid) at less than 5% total LA/D-LA consumption. […] The acidified reaction mixture is extracted with methylene chloride (trimethylphosphite, which quantitatively reduces the labile 13-HPOD, is not needed since both the alcohol and the peroxide have the same elution time). […] (isocratic mobile phase: 74.9% Methanol :25% H2O: 0.1% Acetic acid). […] Lewis et al., supra. […] When the percent conversion (f) to product is less than 5%, this equation simplifies to ([[…]]), where [P-H] is protio-product concentration and [So-H] is the initial protio-substrate concentration. […] et al., Reaction Rates of Isotopic Molecules (R. E. Krieger Publishing, Florida)(1987). […] Greater substrate ratios than 2:1 were not used due to the expensive nature of the per-deutero substrate. Under these conditions, the upper limit for the KIE is greater than 130 and is limited by the vanishingly small peak area of the per-deutero 13-HPOD peak relative to the negative control. This RP-HPLC based method for determining molar protio/per-deutero 13-HPOD ratios gave results identical (within experimental error) to those obtained by EI-MS. No appreciable side products at any wavelength for 15-HLO or SLO-1 were observed, indicating no reaction branching. The OS titration experiments require 5 μM LA/D-LA to record product ratios. For the 15-HLO experiments (pH 7.5), OS concentrations above 6 μM were not feasible due to large amounts of a white emulsion at the extraction interface which inhibited product recovery. This emulsion was not observed for reactions performed with SLO-1 (pH 9.2). […] All kinetic data reported were measured in triplicate on two distinct days.

[4] = molecular target: T2, 15-HLO (Homo sapiens, UniProt P16050); assay: Kinetic isotope effect (KIE) titration, 15-HLO; type: biochemical
T2 construct: made in house
T2 sequence (P16050 1-662): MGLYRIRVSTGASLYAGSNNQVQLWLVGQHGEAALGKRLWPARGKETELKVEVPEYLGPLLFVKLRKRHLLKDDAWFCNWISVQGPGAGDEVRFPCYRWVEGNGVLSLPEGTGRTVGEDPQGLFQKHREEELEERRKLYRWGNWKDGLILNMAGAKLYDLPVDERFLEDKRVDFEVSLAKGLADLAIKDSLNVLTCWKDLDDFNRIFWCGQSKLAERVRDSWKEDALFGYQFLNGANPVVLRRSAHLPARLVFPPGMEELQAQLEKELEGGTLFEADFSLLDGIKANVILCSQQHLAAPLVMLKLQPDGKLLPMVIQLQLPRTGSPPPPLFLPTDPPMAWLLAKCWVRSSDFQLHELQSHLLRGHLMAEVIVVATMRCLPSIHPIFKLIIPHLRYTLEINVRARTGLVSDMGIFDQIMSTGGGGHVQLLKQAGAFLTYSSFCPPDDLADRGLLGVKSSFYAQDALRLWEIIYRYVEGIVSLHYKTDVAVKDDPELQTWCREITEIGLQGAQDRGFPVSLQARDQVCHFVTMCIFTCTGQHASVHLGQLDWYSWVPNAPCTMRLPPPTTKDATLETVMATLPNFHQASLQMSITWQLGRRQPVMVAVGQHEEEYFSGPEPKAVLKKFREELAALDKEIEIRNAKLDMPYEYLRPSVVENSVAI
Experimental: Kinetic Isotope Effect Determination. Determination of the kinetic isotope effect (KIE) was similar to that previously published by Holman and coworkers with the following modifications. Lewis et al., J. Am. Chem. Soc. (1994) 116:795-796. Lipoxygenase is added (0.12 nM SLO-1 and 12 nM 15-HLO) to a protio/per-deutero LA mixture (60 mL, 5 μM LA/D-LA), monitored at 234 nm with a P-E Lambda 4 and stopped with an acid quench (5% glacial acetic acid) at less than 5% total LA/D-LA consumption. It is important to note that diode array spectrophotometers degrade 13-hydroperoxy-9,11-(Z,E)-octadecadienoic acid (13-HPOD) and care should be taken if the reaction time length is longer than 5 minutes. The acidified reaction mixture is extracted with methylene chloride (trimethylphosphite, which quantitatively reduces the labile 13-HPOD, is not needed since both the alcohol and the peroxide have the same elution time). The methylene chloride layer is evaporated to dryness under vacuum, reconstituted in 50 μL running buffer, injected onto a C18 column (Higgins Analytical, 5 micron, 250×4.6 mm), and eluted at 1 mL/min. (isocratic mobile phase: 74.9% Methanol :25% H2O: 0.1% Acetic acid). […] All kinetic data reported were measured in triplicate on two distinct days.

`CCCCC/C=C\C/C=C\CCCCCCCC(=O)O` [LA, Linoleic Acid] gave a CMC ([1]; 25 mM HEPES (pH 7.5)) of 40 ± 10 µM, a CMC ([1]; 0.1 M borate (pH 9.2)) of 150 ± 10 µM and a Kd ([2]; SLO-1, no appreciable substrate inhibition below 30 μM LA, read-out: KD (allosteric site)) greater than 30000 nM.
`CCCCCCCC/C=C\CCCCCCCC(=O)O` [OA, oleic acid] gave a Kd [3] of 36000 ± 14000 nM.
For `CCCCCCCC/C=C\CCCCCCCCOS(=O)(=O)O` [OS, (Z)-9-octadecenyl sulfate], the Kd ([4]; 5 μM LA/D-LA, pH 7.5, read-out: KD from hyperbolic fit of KIE) was 400 ± 50 nM, the Kd ([4]; conclusion, unit inferred, read-out: KD) was 450 ± 50 nM and the “lessens the rate of catalysis (k2 decreases)” value ([2]; SLO-1) was 15%. For the same compound, the Ki ([2]; fit to Km (app) saturation curve, Eq. 3, read-out: Ki) was 450 ± 160 nM, the Ki ([2]; fit to kcat/Km data, Eq. 4, β approximated 0.85, read-out: Ki) was 860 ± 110 nM and the Ki ([2]; simulation Scheme 3, Eqs. 7 and 8, read-out: Kii (catalytic site), minimal value) was no less than 100000 nM. It also gave a Kd [3] of 600 ± 200 nM.
With `CCCCCCCCCCCCOS(=O)(=O)[O-].[Na+]` [SDS] the “effect on KIE” value ([3]; control for non-specific surfactant binding) was “no increase in the KIE”.
